Test results taken from US12606739B2, “Luminescent compound, method for producing luminescent compound, luminescent composition, luminescent thin film and luminescent particles” (KONICA MINOLTA, INC., priority 2020, dated 2026).

Test: Luminescence quantum yield of luminescent particles (melamine resin particles, aqueous dispersion)
Assay type: physicochemical
Settings: luminescent particle, concentration of the dye in the particle 20%, absolute fluorescence quantum yield
Method: The synthesized luminescent compound (Exemplary Compound 1-1) according to one or more embodiments of the present invention was added to 22 mL of water and dissolved. Thereafter, 2 mL of a 5% aqueous solution of Emulsion® 430 (polyoxyethyleneoleyl ether, manufactured by Kao Corporation), an emulsifier for emulsion polymerization, was added to the solution. After the solution was heated to 70° C. with stirring on a hot stirrer, 0.65 g of NIKALAC MX-035 (manufactured by Nippon Carbide Industries Co., Inc.), a melamine resin raw material, was added thereto. […]
Specifically, centrifugation was performed for 15 minutes at 20000 G using a centrifuge (Micro Refrigerated Centrifuge Model 3740 manufactured by Kubota Corporation), the supernatant was removed, ultrapure water was added thereto, ultrasonic irradiation was performed, and redispersion was performed. […] The absolute fluorescence quantum yield of the obtained aqueous dispersion of the fluorescent particles was measured using the fluorescence quantum yield measuring device (C11347-01, manufactured by Hamamatsu Photonics K.K), and this was taken as the luminescence quantum yield of the luminescent particles.
With respect to the above-described Comparative Compound 1 and Comparative Compound 2, preparation of luminescent particles and measurement of the luminescence quantum yield were performed in the same manner. […]

Structure (SMILES) | Luminescence Quantum Yield
CC(C)c1cccc(C(C)C)c1N1C(=O)c2cc(Oc3ccc(S(=O)(=O)O)cc3)c3c4c(Oc5ccc(S(=O)(=O)O)cc5)cc5c6c(cc(Oc7ccc(S(=O)(=O)O)cc7)c(c7c(Oc8ccc(S(=O)(=O)O)cc8)cc(c2c37)C1=O)c64)C(=O)N(c1c(C(C)C)cccc1C(C)C)C5=O [Comparative Compound 1] | 10%
CC(C)c1cccc(C(C)C)c1N1C(=O)c2cc(Oc3ccc(S(=O)(=O)O)cc3-c3ccccc3)c3c4c(Oc5ccc(S(=O)(=O)O)cc5-c5ccccc5)cc5c6c(cc(Oc7ccc(S(=O)(=O)O)cc7-c7ccccc7)c(c7c(Oc8ccc(S(=O)(=O)O)cc8-c8ccccc8)cc(c2c37)C1=O)c64)C(=O)N(c1c(C(C)C)cccc1C(C)C)C5=O [Comparative Compound 2] | 9%
